Measurements reported in patent publication US20050101611A1, “Oral formulation comprising an inhibitor compound of the ileal bile transport and an hmg co-a reductase inhibitor” (priority 2000, published 2005).

Molecular target: T1, ileal bile acid transport system (IBAT) (Homo sapiens, UniProt Q12908)
T1 sequence (Q12908 1-348): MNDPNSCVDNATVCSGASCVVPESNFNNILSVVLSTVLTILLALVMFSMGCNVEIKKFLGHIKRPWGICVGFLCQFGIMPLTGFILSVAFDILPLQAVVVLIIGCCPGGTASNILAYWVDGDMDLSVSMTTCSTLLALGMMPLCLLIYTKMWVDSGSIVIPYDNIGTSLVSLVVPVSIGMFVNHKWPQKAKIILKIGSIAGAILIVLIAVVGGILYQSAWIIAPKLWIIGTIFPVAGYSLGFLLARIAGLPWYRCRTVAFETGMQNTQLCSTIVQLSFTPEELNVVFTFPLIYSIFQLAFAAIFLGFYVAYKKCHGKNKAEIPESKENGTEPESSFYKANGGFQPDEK
Experiment: inhibition of IBAT
Conditions: statement in background text; no method or data given

COc1ccc([C@@H]2Sc3ccccc3N(CCN(C)C)C(=O)[C@@H]2OC(C)=O)cc1 [diltiazem]
inhibition of IBAT: no activity
